# From patent EP1146873B1, “ANTI-ANDROGENS AND METHODS FOR TREATING DISEASE” (SMITHKLINE BEECHAM CORPORATION, priority 1999, dated 2000)
# Key:
# cortisol = experiment: Plasma cortisol concentration in male dogs; type: in vivo; settings: for plasma cortisol concentration: single intravenous dose of approximately 26 umoles/kg
# From the text: (§1) This effect was reversible and was associated with a reduction in serum concentration of luteinizing hormone (LH).
# testosterone [1] = experiment: Serum/plasma testosterone concentration in male dogs after oral or intravenous dosing; type: in vivo; settings: for plasma concentration of testosterone: single intravenous dose of approximately 26 umoles/kg
# estradiol = experiment: Plasma estradiol concentration in male dogs; type: in vivo; settings: for plasma estradiol concentration: single intravenous dose of approximately 26 umoles/kg
# From the text: as §1
# testosterone [2] = experiment: Plasma testosterone concentration in male rats after oral dosing; type: in vivo; settings: for plasma testosterone concentration: four daily oral doses ≥100 mg/kg, 4 hours after the last dose
# Experimental: (§2) Four daily oral doses ≥100 mg/kg (S)-(-)-N-(α-Ethylbenzyl)-3-(3-carboxy)propoxy-2-phenylquinoline-4-carboxamide or (S)-(-)-N-(α-Ethylbenzyl)-3-carboxymethoxy-2-phenylquinoline-4-carboxamide reduced the plasma testosterone concentration of male rats when measured at 4 hours after the last dose. […] Reductions in plasma testosterone also occurred in male rats following single oral doses of 30 to 1000 mg/kg (S)-(-)-N-(α-Ethylbenzyl)-3-carboxymethoxy-2-phenylquinoline-4-carboxamide. Stimulation of testosterone production in vivo by a LH agonist (human chorionic gonadotropin) was not blocked by a single oral dose of 1000 mg/kg (S)-(-)-N-(α-Ethylbenzyl)-3-carboxymethoxy-2-phenylquinoline-4-carboxamide in male rats.
# testosterone production = experiment: Stimulation of testosterone production in vivo by a LH agonist (human chorionic gonadotropin) in male rats; settings: single oral dose of 1000 mg/kg
# Experimental: as §2
# LH = experiment: Plasma LH concentration in male rats after oral dosing; type: in vivo; settings: four daily oral doses of 300 mg/kg, 4 hours after the last dose
# Experimental: as §2
# luteinizing hormone (LH) = experiment: Serum luteinizing hormone concentration in male dogs; type: in vivo; settings: single oral dose of 300 mg/kg
# From the text: as §1
# reproductive organs [3] = experiment: Once daily oral administration for 2 weeks, reproductive organ effects in male mice; type: in vivo; settings: 0.1 to 1000 mg/kg per day
# Experimental: (§3) Once daily oral administration of ((S)-(-)-N-(α-Ethylbenzyl)-3-hydroxy-2-phenylquinoline-4-carboxamide) for 1 month to male rats or for 2 weeks to male mice had no effect on the weights and/or histologic appearance of the reproductive organs. The daily doses ranged from 0.1 to 1000 mg/kg per day.
# reproductive organs [4] = experiment: Once daily oral administration for 1 month, reproductive organ effects in male rats; type: in vivo; settings: 0.1 to 1000 mg/kg per day
# Experimental: as §3
# CYP17A1 = molecular target: T1, CYP17A1 (Canis lupus familiaris, UniProt A0A8I3PR85); experiment: Enzyme inhibition in lysed dog Leydig cells; type: biochemical
# T1 construct: using lysed dog Leydig cells; from tissue; host or cells: lysate of primary Leydig cells isolated from dog testes
# T1 sequence (A0A8I3PR85 19-509): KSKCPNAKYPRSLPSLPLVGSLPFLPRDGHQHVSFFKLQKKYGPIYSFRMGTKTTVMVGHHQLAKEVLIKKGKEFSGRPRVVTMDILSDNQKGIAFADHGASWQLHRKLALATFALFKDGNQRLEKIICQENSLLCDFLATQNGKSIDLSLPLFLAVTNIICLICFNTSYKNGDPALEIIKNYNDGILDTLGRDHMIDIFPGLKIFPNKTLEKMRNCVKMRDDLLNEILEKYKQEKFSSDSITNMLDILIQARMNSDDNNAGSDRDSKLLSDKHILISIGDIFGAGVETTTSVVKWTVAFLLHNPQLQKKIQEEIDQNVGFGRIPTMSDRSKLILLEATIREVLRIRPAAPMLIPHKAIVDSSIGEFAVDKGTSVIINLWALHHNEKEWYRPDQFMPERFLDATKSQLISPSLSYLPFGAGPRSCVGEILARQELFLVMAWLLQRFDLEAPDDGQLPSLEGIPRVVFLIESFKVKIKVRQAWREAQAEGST
# Experimental: This effect occurred at incubation concentrations between 10 and 100 uM. […] Neither (S)-(-)-N-(α-Ethylbenzyl)-3-carboxymethoxy-2-phenylquinoline-4-carboxamide nor (S)-(-)-N-(α-Ethylbenzyl)-3-(3-carboxy)propoxy-2-phenylquinoline-4-carboxamide inhibited testosterone synthesis in Leydig cells isolated from the testis of the rat at the highest incubation concentration tested (300 uM). In contrast, (+)-(R)-3-[3-(4-Phenyl-4-N-methylacetamidopiperidin-1-yl)propyl]-3-(3,4-dichlorophenyl)-1-benzoylpiperidine, and (S)-(-)-N-(α-Ethylbenzyl)-3-[(4-methylpiperazin-1-yl)methyl]-2-phenylquinoline-4-carboxamide inhibited testosterone synthesis of isolated rat Leydig cells at incubation concentrations between 3 and 300 uM.
# testosterone [5] = experiment: Serum/plasma testosterone concentration in male dogs after oral or intravenous dosing; type: in vivo
# Experimental: The ((S)-(-)-N-(α-Ethylbenzyl)-3-hydroxy-2-phenylquinoline-4-carboxamide)-dependent changes in the testes and prostate of male dogs were associated with reductions in serum concentration of testosterone. Testosterone concentrations were reduced after either a single oral dose of 300 mg/kg (3 of 3 dogs) or 25 daily oral doses of 0.3 (1 of 3 dogs), 3 (2 of 3 dogs) or 300 mg/kg ((S)-(-)-N-(α-Ethylbenzyl)-3-hydroxy-2-phenylquinoline-4-carboxamide) (3 of 3 dogs). Serum testosterone was measured on blood samples obtained every 2 hours for 24 hours after the single dose and every 20 minutes for 4 hours beginning approximately 2 hours after the last of the 25 daily doses. The reductions in serum testosterone observed after one or 25 daily doses of 300 mg/kg ((S)-(-)-N-(α-Ethylbenzyl)-3-hydroxy-2-phenylquinoline-4-carboxamide) were reversible in all dogs (6 of 6) within one week after the cessation of dosing.
# as §1
# androstenedione = experiment: Plasma androstenedione concentration in male dogs; type: in vivo; settings: single oral dose of 300 mg/kg
# From the text: as §1
# testes and prostate = experiment: Once daily oral administration for 1 month, reproductive organ effects in male beagle dogs; type: in vivo
# Experimental: Once daily oral administration of ((S)-(-)-N-(α-Ethylbenzyl)-3-hydroxy-2-phenylquinoline-4-carboxamide) for 1 month to sexually mature male beagle dogs (12 - 16 months of age) produced decreases in the size and/or weight of testes and prostate. […] The incidence and severity of these changes were dose-related with 1 of 3, 2 of 3, 2 of 3, 6 of 6 and 3 of 3 male dogs affected at doses of 0.3, 3, 30, 300 or 1000 mg/kg per day, respectively.
# [6] = single oral dose of 300 mg/kg, male dogs
# [7] = once daily oral, 1 month, male beagle dogs
smiles,measurement,setting,value
"CC(=O)N(C)C1(c2ccccc2)CCN(CCC[C@]2(c3ccc(Cl)c(Cl)c3)CCCN(C(=O)c3ccccc3)C2)CC1 [(+)-(R)-3-[3-(4-Phenyl-4-N-methylacetamidopiperidin-1-yl)propyl]-3-(3,4-dichlorophenyl)-1-benzoylpiperidine]",plasma cortisol concentration,cortisol,did not lower
same,plasma concentration of testosterone,testosterone [1],reduced
same,plasma estradiol concentration,estradiol,no effect
CC[C@H](NC(=O)c1c(OCCCC(=O)O)c(-c2ccccc2)nc2ccccc12)c1ccccc1 [(S)-(-)-N-(α-Ethylbenzyl)-3-(3-carboxy)propoxy-2-phenylquinoline-4-carboxamide],plasma testosterone concentration,testosterone [2],reduced
CC[C@H](NC(=O)c1c(OCCCN2CCN(c3ccccc3OC)CC2)c(-c2ccccc2)nc2ccccc12)c1ccccc1 [(S)-(-)-N-(α-Ethylbenzyl)-3-[3-[4-(2-methoxyphenyl)piperazin-1-yl]propoxy]-2-phenylquinoline-4-carboxamide],plasma cortisol concentration,cortisol,did not lower
same,plasma concentration of testosterone,testosterone [1],reduced
same,plasma estradiol concentration,estradiol,no effect
CC[C@H](NC(=O)c1c(OCC(=O)O)c(-c2ccccc2)nc2ccccc12)c1ccccc1 [(S)-(-)-N-(α-Ethylbenzyl)-3-carboxymethoxy-2-phenylquinoline-4-carboxamide],stimulation of testosterone production in vivo by a LH agonist (human chorionic gonadotropin),testosterone production,not blocked
same,plasma testosterone concentration,testosterone [2],reduced
same,plasma testosterone,testosterone [2]; single oral doses of 30 to 1000 mg/kg,Reductions
same,plasma concentration of testosterone,testosterone [1],reduced
same,plasma LH concentration,LH,reduced
CC[C@H](NC(=O)c1c(O)c(-c2ccccc2)nc2ccccc12)c1ccccc1 [(S)-(-)-N-(α-Ethylbenzyl)-3-hydroxy-2-phenylquinoline-4-carboxamide],serum concentration of luteinizing hormone (LH),luteinizing hormone (LH),reduction
same,weights and/or histologic appearance of the reproductive organs,reproductive organs [3],no effect
same,plasma concentration of cortisol,cortisol; single oral dose of 300 mg/kg,no effect
same,weights and/or histologic appearance of the reproductive organs,reproductive organs [4],no effect
same,plasma concentration of testosterone,testosterone [1],reduced
same,duration of decrease in serum testosterone,"testosterone [1]; single oral dose of 300 mg/kg, post-dose",at least 24 hours
same,inhibition of the enzyme (CYP17A1) in the testosterone synthetic pathway,CYP17A1,inhibition
same,dogs with reduced serum testosterone concentration,testosterone [5]; 25 daily oral doses of 0.3 mg/kg,1 of 3
same,dogs with reduced serum testosterone concentration,testosterone [5]; 25 daily oral doses of 3 mg/kg,2 of 3
same,dogs with reduced serum testosterone concentration,testosterone [5]; 25 daily oral doses of 300 mg/kg,3 of 3
same,dogs in which reductions in serum testosterone were reversible,"testosterone [5]; after one or 25 daily doses of 300 mg/kg, within one week after cessation of dosing",6 of 6
same,dogs with reduced serum testosterone concentration,testosterone [5]; single oral dose of 300 mg/kg,3 of 3
same,reversibility of decrease in serum testosterone,testosterone [5]; [6],reversible
same,serum concentration of testosterone,testosterone [5]; [6],rapid and marked decrease
same,plasma concentration of androstenedione,androstenedione,reduced
same,plasma concentration of estradiol,estradiol; single oral dose of 300 mg/kg,no effect
same,male dogs affected (testes and prostate changes),"testes and prostate; 0.3 mg/kg per day oral, 1 month",1 of 3
same,male dogs affected (testes and prostate changes),"testes and prostate; 3 mg/kg per day oral, 1 month",2 of 3
same,male dogs affected (testes and prostate changes),"testes and prostate; 30 mg/kg per day oral, 1 month",2 of 3
same,male dogs affected (testes and prostate changes),"testes and prostate; 300 mg/kg per day oral, 1 month",6 of 6
same,male dogs affected (testes and prostate changes),"testes and prostate; 1000 mg/kg per day oral, 1 month",3 of 3
same,reversibility of testes and prostate changes,testes and prostate; male beagle dogs,demonstrated
same,histologic evaluation of prostate,testes and prostate; [7],diffuse atrophy of the prostate gland
same,histologic evaluation of testes,testes and prostate; [7],"degeneration of the seminiferous epithelium of the testes with depletion of spermatogonia, spermatocytes and spermatids"
same,size and/or weight of testes and prostate,"testes and prostate; once daily oral, 1 month, sexually mature male beagle dogs",decreases
